Test results from US10246429B2, “Vinyl fluoride cyclopropyl fused thiazin-2-amine compounds as beta-secretase inhibitors and methods of use” (AMGEN INC., priority 2015, dated 2019).

Key:
BACE2 = BACE2 (Homo sapiens (Human), UniProt Q9Y5Z0); assay: In vitro enzymatic BACE2 FRET assay; assay type: biochemical; conditions: read-out: IC50 IP (μM) BACE2 Enzyme
Description: In Vitro Enzymatic BACE1 and BACE2 FRET (Fluorescence Resonance Energy Transfer) Assays (Enzyme Assay Data in Table 1)

Cathepsin D (CatD) = Cathepsin D (CatD) (Homo sapiens (Human), UniProt P07339); assay: CatD assay; assay type: biochemical; conditions: read-out: IC50 IP (μM) CatD
Cathepsin D (CatD), sequence (P07339 65-412, species assumed): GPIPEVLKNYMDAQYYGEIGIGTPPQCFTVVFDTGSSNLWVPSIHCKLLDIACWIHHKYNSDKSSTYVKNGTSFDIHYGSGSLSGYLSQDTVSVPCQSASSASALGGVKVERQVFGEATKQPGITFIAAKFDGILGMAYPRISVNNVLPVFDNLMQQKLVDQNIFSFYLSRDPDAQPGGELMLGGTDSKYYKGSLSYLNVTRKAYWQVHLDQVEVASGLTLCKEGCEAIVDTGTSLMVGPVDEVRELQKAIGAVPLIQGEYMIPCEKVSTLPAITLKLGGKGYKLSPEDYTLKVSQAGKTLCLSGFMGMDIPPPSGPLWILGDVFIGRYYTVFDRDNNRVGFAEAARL

BACE2, sequence (Q9Y5Z0 63-518): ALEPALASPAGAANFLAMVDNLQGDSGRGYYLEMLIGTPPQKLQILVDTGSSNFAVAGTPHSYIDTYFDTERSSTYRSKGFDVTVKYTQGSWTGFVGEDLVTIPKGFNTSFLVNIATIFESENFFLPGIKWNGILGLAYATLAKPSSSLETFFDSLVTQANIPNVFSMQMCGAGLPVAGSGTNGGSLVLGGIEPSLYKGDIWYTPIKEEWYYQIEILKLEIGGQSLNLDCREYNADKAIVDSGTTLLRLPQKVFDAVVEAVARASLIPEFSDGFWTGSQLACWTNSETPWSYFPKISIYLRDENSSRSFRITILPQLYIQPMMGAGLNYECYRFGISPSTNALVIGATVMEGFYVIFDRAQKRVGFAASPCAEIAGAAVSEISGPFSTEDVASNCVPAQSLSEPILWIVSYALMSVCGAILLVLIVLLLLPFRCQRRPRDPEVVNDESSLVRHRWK

Compound	IC50 (BACE2)	IC50 (Cathepsin D (CatD))
CN(C)C(=O)[C@]12C[C@H]1[C@@](C)(c1cc(/C=C(\F)c3cnc(C#N)cn3)ccc1F)N=C(N)S2 [Example 169, (1S,5S,6S)-3-amino-5-(5-((Z)-2-(5-cyanopyrazin-2-yl)-2-fluorovinyl)-2-fluorophenyl)-N,N,5-trimethyl-2-thia-4-azabicyclo[4.1.0]hept-3-ene-1-carboxamide]	0.0174 µM	95.5 µM
CN(C)C(=O)[C@]12C[C@H]1[C@@](C)(c1cc(/C=C(\F)c3ccc(C#N)nc3)ccc1F)N=C(N)S2 [Example 171, (1S,5S,6S)-3-amino-5-(5-((Z)-2-(6-cyanopyridin-3-yl)-2-fluorovinyl)-2-fluorophenyl)-N,N,5-trimethyl-2-thia-4-azabicyclo[4.1.0]hept-3-ene-1-carboxamide]	0.642 µM	824 µM
CN(C)C(=O)[C@]12C[C@H]1[C@@](C)(c1cc(/C=C(\F)c3ccc(C#N)nn3)ccc1F)N=C(N)S2 [Example 174, (1S,5S,6S)-3-amino-5-(5-((Z)-2-(6-cyanopyridazin-3-yl)-2-fluorovinyl)-2-fluorophenyl)-N,N,5-trimethyl-2-thia-4-azabicyclo[4.1.0]hept-3-ene-1-carboxamide]	0.406 µM	280 µM
Cc1nnc(COc2cnc(/C(F)=C/c3ccc(F)c([C@@]4(C)N=C(N)S[C@@]5(S(C)(=O)=O)C[C@H]54)c3)cn2)o1 [Example 228, (1R,5S,6S)-5-(2-fluoro-5-((Z)-2-fluoro-2-(5-((5-methyl-1,3,4-oxadiazol-2-yl)methoxy)pyrazin-2-yl)vinyl)phenyl)-5-methyl-1-(methylsulfonyl)-2-thia-4-azabicyclo[4.1.0]hept-3-en-3-amine]	0.292 µM	46.3 µM
CN(C)C(=O)[C@]12C[C@H]1[C@@](C)(c1cc(/C=C(\F)c3cc4nccnc4cn3)ccc1F)N=C(N)S2 [Example 247, (1S,5S,6S)-3-amino-5-(2-fluoro-5-((Z)-2-fluoro-2-(pyrido[3,4-b]pyrazin-7-yl)vinyl)phenyl)-N,N,5-trimethyl-2-thia-4-azabicyclo[4.1.0]hept-3-ene-1-carboxamide]	0.385 µM	1190 µM
COC(=O)[C@@]12SC(N)=N[C@](C)(c3cc(/C=C(\F)c4ccc(C#N)cn4)ccc3F)[C@@H]1C2(F)F [Example 256, (1S,5S,6R)-methyl 3-amino-5-(5-((Z)-2-(5-cyanopyridin-2-yl)-2-fluorovinyl)-2-fluorophenyl)-7,7-difluoro-5-methyl-2-thia-4-azabicyclo[4.1.0]hept-3-ene-1-carboxylate]	0.252 µM	760 µM
COC[C@@]12SC(N)=N[C@](C)(c3cc(/C=C(\F)c4ccc(C#N)cn4)ccc3F)[C@@H]1C2(F)F [Example 258, 6-((Z)-2-(3-((1S,5S,6R)-3-amino-7,7-difluoro-1-(methoxymethyl)-5-methyl-2-thia-4-azabicyclo[4.1.0]hept-3-en-5-yl)-4-fluorophenyl)-1-fluorovinyl)nicotinonitrile]	0.118 µM	90.7 µM
COC[C@]12C[C@H]1[C@@](C)(c1cc(/C=C(\F)c3cnc(Cl)cn3)ccc1F)N=C(N)S2 [Example 261, (1S,5S,6S)-5-(5-((Z)-2-(5-chloropyrazin-2-yl)-2-fluorovinyl)-2-fluorophenyl)-1-(methoxymethyl)-5-methyl-2-thia-4-azabicyclo[4.1.0]hept-3-en-3-amine]	0.08 µM	357 µM
C#CCOc1cnc(/C(F)=C/c2ccc(F)c([C@@]3(C)N=C(N)S[C@@]4(COC)C[C@H]43)c2)cn1 [Example 262, (1S,5S,6S)-5-(2-fluoro-5-((Z)-2-fluoro-2-(5-(prop-2-yn-1-yloxy)pyrazin-2-yl)vinyl)phenyl)-1-(methoxymethyl)-5-methyl-2-thia-4-azabicyclo[4.1.0]hept-3-en-3-amine]	0.694 µM	317 µM
CC#CCOc1cnc(/C(F)=C/c2ccc(F)c([C@@]3(C)N=C(N)S[C@@]4(COC)C[C@H]43)c2)cn1 [Example 263]	1.84 µM	492 µM
COC[C@]12C[C@H]1[C@@](C)(c1cc(/C=C(\F)c3cnc(OC[C@H](C)OC)cn3)ccc1F)N=C(N)S2 [Example 265]	3.86 µM	1320 µM
COC[C@]12C[C@H]1[C@@](C)(c1cc(/C=C(\F)c3cnc(OCCC(F)(F)F)cn3)ccc1F)N=C(N)S2 [Example 268]	1.55 µM	245 µM
COC[C@]12C[C@H]1[C@@](C)(c1cc(/C=C(\F)c3cnc(OCC4CCC4)cn3)ccc1F)N=C(N)S2 [Example 271]	1.84 µM	120 µM
COC[C@]12C[C@H]1[C@@](C)(c1cc(/C=C(\F)c3cnc(OCC4CCO4)cn3)ccc1F)N=C(N)S2 (some centres unmarked) [Example 273]	5.11 µM	647 µM
COC[C@]12C[C@H]1[C@@](C)(c1cc(/C=C(\F)c3cnc(OCc4cc(C)no4)cn3)ccc1F)N=C(N)S2 [Example 276]	0.966 µM	156 µM
COC[C@]12C[C@H]1[C@@](C)(c1cc(/C=C(\F)c3cnc(OC(C)C(F)(F)F)cn3)ccc1F)N=C(N)S2 (some centres unmarked) [Example 277]	2.42 µM	207 µM

The next lines start with the values.

IC50 (BACE2)	IC50 (Cathepsin D (CatD))	Compound
0.0823 µM	167 µM	CN(C)C(=O)[C@]12C[C@H]1[C@@](C)(c1cc(/C=C(\F)c3cnc(OCC(F)(F)F)cn3)ccc1F)N=C(N)S2 [Example 155, (1S,5S,6S)-3-amino-5-(2-fluoro-5-((Z)-2-fluoro-2-(5-(2,2,2-trifluoroethoxy)pyrazin-2-yl)vinyl)phenyl)-N,N,5-trimethyl-2-thia-4-azabicyclo[4.1.0]hept-3-ene-1-carboxamide]
0.135 µM	93.8 µM	CC(Oc1cnc(/C(F)=C/c2ccc(F)c([C@@]3(C)N=C(N)S[C@@]4(C(=O)N(C)C)C[C@H]43)c2)cn1)c1ncco1 (stereo partly drawn) [Example 156, (1S,5S,6S)-3-amino-5-(2-fluoro-5-((Z)-2-fluoro-2-(5-(-1-(oxazol-2-yl)ethoxy)pyrazin-2-yl)vinyl)phenyl)-N,N,5-trimethyl-2-thia-4-azabicyclo[4.1.0]hept-3-ene-1-carboxamide]
0.0262 µM	39.1 µM	CN(C)C(=O)[C@]12C[C@H]1[C@@](C)(c1cc(/C=C(\F)c3cnc(Br)cn3)ccc1F)N=C(N)S2 [Example 157, (1S,5S,6S)-3-amino-5-(5-((Z)-2-(5-bromopyrazin-2-yl)-2-fluorovinyl)-2-fluorophenyl)-N,N,5-trimethyl-2-thia-4-azabicyclo[4.1.0]hept-3-ene-1-carboxamide]
0.00305 µM	1700 µM	CN(C)C(=O)[C@]12C[C@H]1[C@@](C)(c1cc(/C=C(\F)c3ncc(C#N)cn3)ccc1F)N=C(N)S2 [Example 170, (1S,5S,6S)-3-amino-5-(5-((Z)-2-(5-cyanopyrimidin-2-yl)-2-fluorovinyl)-2-fluorophenyl)-N,N,5-trimethyl-2-thia-4-azabicyclo[4.1.0]hept-3-ene-1-carboxamide]
0.146 µM	202 µM	CN(C)C(=O)[C@]12C[C@H]1[C@@](C)(c1cc(/C=C(\F)c3ccc(C#N)cc3F)ccc1F)N=C(N)S2 [Example 172, (1S,5S,6S)-3-amino-5-(5-((Z)-2-(4-cyano-2-fluorophenyl)-2-fluorovinyl)-2-fluorophenyl)-N,N,5-trimethyl-2-thia-4-azabicyclo[4.1.0]hept-3-ene-1-carboxamide]
0.0364 µM	204 µM	CNC(=O)[C@]12C[C@H]1[C@@](C)(c1cc(/C=C(\F)c3ccc(Cl)cn3)ccc1F)N=C(N)S2 [Example 175, (1S,5S,6S)-3-amino-5-(5-((Z)-2-(5-chloropyridin-2-yl)-2-fluorovinyl)-2-fluorophenyl)-N,5-dimethyl-2-thia-4-azabicyclo[4.1.0]hept-3-ene-1-carboxamide]
0.00574 µM	609 µM	CN(C)C(=O)[C@]12C[C@H]1[C@@](C)(c1cc(/C=C(\F)c3ccc(Cl)cn3)cnc1F)N=C(N)S2 [Example 178, (1S,5S,6S)-3-amino-5-(5-((Z)-2-(5-chloropyridin-2-yl)-2-fluorovinyl)-2-fluoropyridin-3-yl)-N,N,5-trimethyl-2-thia-4-azabicyclo[4.1.0]hept-3-ene-1-carboxamide]
0.023 µM	> 400 µM	CN(C)C(=O)[C@]12C[C@H]1[C@@](C)(c1cc(/C=C(\F)c3ccc(C#N)cn3)cnc1F)N=C(N)S2 [Example 180, (1S,5S,6S)-3-amino-5-(5-((Z)-2-(5-cyanopyridin-2-yl)-2-fluorovinyl)-2-fluoropyridin-3-yl)-N,N,5-trimethyl-2-thia-4-azabicyclo[4.1.0]hept-3-ene-1-carboxamide]
0.241 µM	2140 µM	C[C@]1(c2cc(/C=C(\F)c3ccc(C#N)cn3)cnc2F)N=C(N)S[C@@]2(C(=O)N3CCOCC3)C[C@H]21 [Example 183, 6-((Z)-2-(5-((1S,5S,6S)-3-amino-5-methyl-1-(morpholine-4-carbonyl)-2-thia-4-azabicyclo[4.1.0]hept-3-en-5-yl)-6-fluoropyridin-3-yl)-1-fluorovinyl)nicotinonitrile]
0.117 µM	9.28 µM	CN(C)C(=O)[C@]12C[C@H]1[C@@](C)(c1cc(/C=C\F)ccc1F)N=C(N)S2 [Example 208, (1S,5S,6S)-3-amino-5-(2-fluoro-5-((Z)-2-fluorovinyl)phenyl)-N,N,5-trimethyl-2-thia-4-azabicyclo[4.1.0]hept-3-ene-1-carboxamide]
0.151 µM	158 µM	C[C@]1(c2cc(/C=C(\F)c3cnc(Cl)cn3)ccc2F)N=C(N)S[C@]2(CO)[C@H]1C2(F)F [Example 252, ((1S,5S,6R)-3-amino-5-(5-((Z)-2-(5-chloropyrazin-2-yl)-2-fluorovinyl)-2-fluorophenyl)-7,7-difluoro-5-methyl-2-thia-4-azabicyclo[4.1.0]hept-3-en-1-yl)methanol]
0.115 µM	84.1 µM	C[C@]1(c2cc(/C=C(\F)c3ccc(C#N)cn3)cnc2F)N=C(N)S[C@@]2(C(=O)N3CCC(F)(F)CC3)C[C@H]21 [Example 260, 6-((Z)-2-(5-((1S,5S,6S)-3-amino-1-(4,4-difluoropiperidine-1-carbonyl)-5-methyl-2-thia-4-azabicyclo[4.1.0]hept-3-en-5-yl)-6-fluoropyridin-3-yl)-1-fluorovinyl)nicotinonitrile]
